Experimental findings from patent publication US20240208912A1 (Mirati Therapeutics, Inc., priority 2021, published 2024) are described below.

Experiment [1] addresses T1, PRMT5/MEP50 complex (Homo sapiens, UniProt O14744).
T1 construct: purchased Reaction Biology Corporation
Kind of experiment: PRMT5:MEP50 FlashPlate Assay (histone H4 peptide substrate, plus and minus MTA). Format: biochemical. How it is done:
The PRMT5 inhibitory activity of compounds of the present invention was determined using either a PRMT5:MEP50 FlashPlate Assay (Reaction Biology Corporation) or a PRMT5:MEP50 HotSpot Assay (Reaction Biology Corporation).

For experiment [2], the target named is T1, PRMT5/MEP50 complex. Kind of experiment: PRMT5:MEP50 HotSpot Assay (full-length histone H2A substrate, plus and minus MTA). Format: biochemical. The note with it: read-out: IC50 + 2 μM MTA, in the presence of 2 μM MTA. The gist of the method:
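Tritiated product on full-length recombinant H2A was counted by scintillation after the stopped reaction was captured on filter paper. Substrate is histone H2A; conditions include plus and minus MTA.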

Another experiment deals with HCT116 parental cells. Kind of experiment: Proliferation assay (CellTiter-Glo, 10 days) in HCT116 parental cells. The class given is cell-based. Particulars: CellTiter-Glo after 10 days of treatment. The protocol:
(§1) Control samples were analyzed in parallel.
Briefly, on Day 0, 250 HCT116 parental or HCT116 homozygous MTAP knockout cell were seeded in 96 well plates in McCoy's 5A supplemented with […] fetal bovine serum and pen/strep and the cells were incubated overnight at 37° C. plus 5% CO2.
The following day, cells were treated with DMSO vehicle control or a dose response of PRMT5 inhibitors and incubated at 37 C plus 5% CO2 for five days. On Day 6, the cells were trypsinized and split 1:10 into new 96-well plates with fresh medium containing the same concentration of PRMT5 inhibitor and incubated for an additional 5 days at 37° C. plus 5% CO^2.
On Day 11, the viability of the cells was measured using a CTG assay kit (CellTiter-Glo; Promega cat.no G7573) in accordance with the manufacturer's instructions. The IC50 values for each compound after 10 days of treatment were calculated using GraphPad PRISM software.
A general note: In ATP-based viability assays light output follows the ATP content of the culture.

In experiment [3] the test system is HCT116 homozygous MTAP knockout cells. Kind of experiment: Proliferation assay (CellTiter-Glo, 10 days) in HCT116 homozygous MTAP knockout cells. Format: cell-based. Particulars: CellTiter-Glo after 10 days of treatment, read-out: Proliferation IC50 (nM) HCT116 MTAP_KO. The gist of the method: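 CellTiter-Glo viability read on day 11 gives a 10-day IC50. Dosing began one day after seeding, with a 1:10 split into fresh drug-containing medium on day 6. Cells are HCT116 lacking both MTAP alleles via CRISPR/Cas9, run alongside the parental line.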

Experiment [4] deals with PRMT5-dependent Symmetric Di-methyl Arginine signal in HCT116 parental cells. In words: SYM11 In-Cell Western in HCT116 parental cells. The class given is cell-based. The note with it: HCT116 parental cells; 4 days of treatment; SYM11/DRAQ5 ratio as percent of DMSO control; read-out: In-cell-Western (SYM11) IC50 (nM) HCT216 parental. The protocol:
as §1
Briefly, on Day 0, 2,000 HCT116 parental or HCT116 homozygous MTAP knockout cells were seeded in 96 well plates in McCoy's 5A supplemented with 10% fetal bovine serum and pen/strep and the cells were incubated overnight at 37° C. plus 5% CO2. The following day, cells were treated with DMSO vehicle control or a dose response of PRMT5 inhibitors, and incubated at 37° C. plus 5% CO^2 for four days.
After 4 days of treatment, the cells were fixed by adding 50 μl of 4% paraformaldehyde solution to each well and the cells were incubated for 20 min at room temperature. The paraformaldehyde solution was removed, 150 μl of ice-cold methanol was added and the plate was placed −20° C. for 10 minutes. The methanol was removed, 150 μl of Odyssey Blocking buffer+0.05% Tween20 was added and the plate was incubated at room temperature with shaking for one hour.
The primary SYM11 antibody solution was removed by aspiration and the wells were washed three consecutive times with phosphate buffered saline containing 0.1% Tween-20 (PBST).
The secondary antibody solution was removed by aspiration and the wells were washed three consecutive times with PBST.
The SYM11 signal and the DRAQ5 signal were quantified using a Li-Cor Odyssey machine reading at […], respectively. The SYM11/DRAQ5 ratio was used to calculate the inhibition of Symmetric Dimethyl Arginine as percent of DMSO control.

Experiment [5] has as its system PRMT5-dependent Symmetric Di-methyl Arginine signal in HCT116 homozygous MTAP Knockout cells. Kind of experiment: SYM11 In-Cell Western in HCT116 homozygous MTAP knockout cells. The note with it: 4 days of treatment, SYM11/DRAQ5 ratio as percent of DMSO control, read-out: In-cell-Western (SYM11) IC50 (nM) HCT116 MTAP_KO. The class given is cell-based. The method, boiled down:
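HCT116 cells with CRISPR homozygous MTAP knockout, alongside parental cells, treated four days with PRMT5 inhibitor dose response at 37° C., 5% CO2 in McCoy's 5A with 10% FBS.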

Where [6] appears, read: in the absence of MTA, read-out: IC50.

T1 sequence (O14744 2-637 limits assumed): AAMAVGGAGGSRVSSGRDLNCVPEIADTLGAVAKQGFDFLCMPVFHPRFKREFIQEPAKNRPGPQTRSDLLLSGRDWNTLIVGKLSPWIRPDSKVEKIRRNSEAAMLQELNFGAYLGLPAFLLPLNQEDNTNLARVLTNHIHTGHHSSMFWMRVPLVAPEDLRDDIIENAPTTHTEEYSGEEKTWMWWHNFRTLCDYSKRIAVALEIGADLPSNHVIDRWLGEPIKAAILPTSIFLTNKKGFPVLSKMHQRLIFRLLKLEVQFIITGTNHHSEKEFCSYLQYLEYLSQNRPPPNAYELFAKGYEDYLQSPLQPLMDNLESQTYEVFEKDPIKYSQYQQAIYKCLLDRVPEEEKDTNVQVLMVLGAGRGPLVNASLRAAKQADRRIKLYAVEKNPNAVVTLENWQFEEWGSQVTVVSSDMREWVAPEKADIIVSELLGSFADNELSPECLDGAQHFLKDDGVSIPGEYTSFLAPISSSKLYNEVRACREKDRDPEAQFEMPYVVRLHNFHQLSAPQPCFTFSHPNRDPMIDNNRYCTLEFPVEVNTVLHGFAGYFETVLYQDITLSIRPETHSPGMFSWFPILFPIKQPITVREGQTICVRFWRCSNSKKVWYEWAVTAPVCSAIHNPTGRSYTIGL
T1 sequence (Q9BQA1 2-342 partner limits assumed): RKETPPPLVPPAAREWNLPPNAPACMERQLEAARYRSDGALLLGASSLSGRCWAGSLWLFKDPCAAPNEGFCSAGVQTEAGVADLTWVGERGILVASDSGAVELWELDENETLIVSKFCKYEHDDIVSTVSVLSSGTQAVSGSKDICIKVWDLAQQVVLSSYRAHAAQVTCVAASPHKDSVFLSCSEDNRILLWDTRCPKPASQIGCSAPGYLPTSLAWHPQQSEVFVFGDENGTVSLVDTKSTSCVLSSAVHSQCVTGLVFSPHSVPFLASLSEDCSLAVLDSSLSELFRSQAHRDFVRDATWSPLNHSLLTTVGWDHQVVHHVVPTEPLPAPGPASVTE

With “4-(aminomethyl)-6-(5-ethoxypyrazolo[1,5-a]pyridin-3-yl)phthalazin-1(2H)-one [Example 4-158]”, the IC50 at PRMT5/MEP50 complex [1] (setting [6]) is 0.113 µM; at PRMT5/MEP50 complex [1] (read-out: IC50 + 2 μM MTA, in the presence of 2 μM MTA), 0.0028 µM; at PRMT5/MEP50 complex [2] it was 1.46 µM; in the experiment on HCT116 parental cells, 1740 nM; in experiment [3], 2200 nM; in experiment [4], more than 10000 nM. For the same molecule, the IC50 in experiment [5] is more than 10000 nM.
Consider `Cc1nc2cncc(-c3ccc4c(=O)[nH]nc(CN)c4c3)c2o1` [Example 4-110, 4-(aminomethyl)-6-(2-methyloxazolo[4,5-c]pyridin-7-yl)phthalazin-1(2H)-one], for which the IC50 at PRMT5/MEP50 complex [1] (setting [6]) is more than 100 µM.
